Values of other authors, collected in patent US11129865B2, “NEUPANEX®: neuroprotective, neuroregenerational, and neurogenesis supporting supplement combination” (priority 2017, dated 2021).
One block for each compound: values may come before it.

Assays:
heat shock protein 60 = conditions: astrocytes
heme oxygenase-1 = conditions: astrocytes
[1] = rodents, increased dietary cholesterol
[2] = supplementary dietary cholesterol
hippocampal cell culture = conditions: pretreatment, low to moderate concentration (10 nm-100 nm) in culture medium; voltage clamp and toxic NMDA insult
[3] = test system: IL-6 and IL-1 alpha and TNF-alpha

Compound: CC(=O)O[C@H](CC(=O)[O-])C[N+](C)(C)C [acetyl-L-carnitine]
heat shock protein 60 expression (heat shock protein 60): up-regulation of heat shock protein 60
levels of heme oxygenase-1 (heme oxygenase-1): increased levels of heme oxygenase-1 were induced in a dose- and time-dependent manner

brain cholesterol [1]: dramatically increased brain cholesterol
Compound: CC(C)CCC[C@@H](C)[C@H]1CC[C@H]2[C@@H]3CC=C4C[C@@H](O)CC[C@]4(C)[C@H]3CC[C@]12C [cholesterol]
autistic behaviors of children with SLOS [2]: reduced or even eliminated

Compound: Vitamin D
neuroprotective effect compared to controls (hippocampal cell culture): dramatic neuroprotective effect
reduction in inflammatory cytokines IL-6, IL-1 alpha and TNF-alpha, concentration dependence [3]: lower concentrations of vitamin D were more effective than the higher concentrations
Increases IL-10 (IL-10): Vitamin D: Increases IL-10 (43%), Decreases IL-6 & TNF-Alpha,
